# Measured values from PMC6100056, “Antitumor Effects and Delivery Profiles of Menahydroquinone-4 Prodrugs with Ionic or Nonionic Promoiety to Hepatocellular Carcinoma Cells” (Molecules : A Journal of Synthetic Chemistry and Natural …, 2018).
# Structures can show the parent of a compound that is named as a salt.
# Experiments:
# [1] = test system: esterase; experiment: Regeneration (hydrolysis) of MKH-ester derivatives to MKH in S9 fractions; assay type: in vitro ADME; settings: human, pH 7.4, 37 °C, Michaelis-Menten fit, 95% confidence interval in square brackets
# Experimental: To assess the regeneration to the parental form, MKH, from the MKH-ester derivatives by an esterase of HCC, MKH-ACT, MKH-DMG and MKH-SUC were incubated at 37 °C in S9 fractions obtained from PLC/PRF/5 or SK-Hep-1 cells. The velocities of MK-4 generated in the S9 fractions were plotted as the amount of MKH, because MKH is rapidly oxidized to MK-4 during drug extraction and measurement. The regeneration versus […] profile was fitted by the Michaelis--Menten model (shown in Figure 4) and the kinetic parameters were calculated (Table 2). The regeneration velocities of MKH-ACT in both PLC/PRF/5 and SK-Hep-1 cells reached a plateau at about 3 μM MKH-ACT. MKH-DMG reached a plateau in PLC/PRF/5 and SK-Hep-1 cells at 25 μM and about 6 μM MKH-DMG, respectively. MKH-SUC reached a plateau in PLC/PRF/5 and SK-Hep-1 cells at about 0.6 μM and about 1.5 μM MKH-SUC, respectively. The level scale of MKH regeneration from MKH-SUC was about 100-fold higher than those of MKH-ACT and MKH-DMG.
# The hydrolysis of the esters was performed at 37 °C in S9 fractions of PLC/PRF/5 and SK-Hep-1 cells after ultrasonic homogenization and centrifugation (10,000× g, 1 h) in isotonic phosphate buffer (pH 7.4). Stock solutions of each ester were made in the same manner as the cell viability assay, and the solutions were diluted with 0.1% w/v albumin in PBS. The enzymatic reactions were initiated by adding 5 μL of the diluted of each ester into amber test tubes containing 95 μL of preheated S9 fractions. A BCA protein assay (PIERCE/Thermo Fisher Scientific Inc., Waltham, MA, USA) was used to determine protein concentrations, and the final S9 concentration was adjusted to 1.0 mg of protein/mL in PBS. The solutions were incubated at 37 °C, and at appropriate times, the aliquots from the reaction were combined with an equal volume of methanol and three times volume of n-hexane. The samples were vortexed for 2 min and centrifuged at 1750× g for 10 min. The upper layer (n-hexane) was collected and evaporated under nitrogen. The residue was reconstituted with 100 μL of methanol, sonicated for 10 s and subjected to LC-MS/MS analysis as described below.
# The LC-MS/MS analysis was performed with the same instrument under the same conditions as in an earlier report, except for the following MS/MS-multiple reaction monitoring (MRM) setting and retention times: MRM: m/z 532→171, [M + H]^+ MKH-ACT adduct; m/z 664→187, [M + NH4]^+ MKH-SUC adduct; retention times: MKH-ACT, 1.7 min; and MKH-SUC, 1.1 min.
# For the determination of Km and Vmax for the uptake and enzymatic activation of MKH-esters, concentration-dependency data were fit to the Michaelis--Menten equation:V = Vmax·[S]/(Km + [S])(1) where V represents the velocity of action between the substrate and transportation/enzymatic reaction, [S] refers to the concentration of the substrate and Km is defined as the concentration of substrate at the half-maximal rate of action (Vmax). Data were analyzed by GraphPad Prism (GraphPad Software).
# [2] = set-up: method as in PMID 17537874, PMID 10077437; settings: cited from earlier work
# [3] = Hydrolysis of MKH-SUC in isotonic buffer solution (PBS); assay type: physicochemical; settings: in PBS at 37 °C; read-out: Half-life toward MKH (converted)
# Experimental: Next, a time course of MKH delivery with the MKH derivatives, including MK-4, was investigated. The AUC0–24h values for MKO after treatment of MKH-SUC was the highest among the three MKH-derivatives in both HCC cell lines, and the AUC0–24h values for MKH after treatment of MKH-SUC were also the highest (Table 3). […] However, the difference in MKH delivery was not higher than that of the regeneration to MKH by the esterase of HCC (Figure 4 and Table 2). […] These differences may result from the actual amount (nearly equal to Vmax values) of uptake and the regeneration step between MKH-ACT and MKH-DMG, and the rates of transportation/enzymatic reactions to the substances (Km) of MKH-ACT and MKH-DMG may be sufficient to reach Vmax under the test conditions shown in Figure 5. […] Regarding the decrease of MK-4 after 24 h treatment of MKH-SUC in both cells (Figure 5D,H), this phenomenon may be explained by the disposition of hydrolysis of MKH-SUC in an isotonic buffer solution. […] This is because, at 24 h, the delivery of MKH, which acts as a cofactor of GGCX, remained sufficient, but excess MKH that would be oxidized to MK-4 may be reduced with the elimination of MKH-SUC.
# [4] = S9 fraction of PLC/PRF/5 cells, S9 of PLC/PRF/5 cells
# [5] = S9 fraction of SK-Hep-1 cells, S9 of SK-Hep-1 cells
SMILES,"Km [1, 4] [µM]","Km [1, 5] [µM]",melting point [°C],Hydrolysis in human plasma [2],half-life [3] [h]
"CC(=O)Oc1c(C)c(C/C=C(\C)CC/C=C(\C)CC/C=C(\C)CCC=C(C)C)c(OC(C)=O)c2ccccc12 [MKH-ACT, Menahydroquinone-4 1,4-bis acetate]",1.42,1.32,39 to 41,–,–
"CC(C)=CCC/C(C)=C/CC/C(C)=C/CC/C(C)=C/Cc1c(C)c(OC(=O)CN(C)C)c2ccccc2c1OC(=O)CN(C)C [MKH-DMG, Menahydroquinone-4 1,4-bis-N,N-dimethylglycinate hydrochloride]",13.6,3.24,–,not accelerated,–
"CC(C)=CCC/C(C)=C/CC/C(C)=C/CC/C(C)=C/Cc1c(C)c(OC(=O)CCC(=O)O)c2ccccc2c1OC(=O)CCC(=O)O [MKH-SUC, Menahydroquinone-4 1,4-bis hemisuccinate]",0.399,0.74,–,–,~25
